Target: T1, mAChR M4 (UniProt P08173)
T1 construct: hM1 and hM4 cDNAs were purchased from Missouri S&T cDNA Resource
T1 sequence (P08173 1-479): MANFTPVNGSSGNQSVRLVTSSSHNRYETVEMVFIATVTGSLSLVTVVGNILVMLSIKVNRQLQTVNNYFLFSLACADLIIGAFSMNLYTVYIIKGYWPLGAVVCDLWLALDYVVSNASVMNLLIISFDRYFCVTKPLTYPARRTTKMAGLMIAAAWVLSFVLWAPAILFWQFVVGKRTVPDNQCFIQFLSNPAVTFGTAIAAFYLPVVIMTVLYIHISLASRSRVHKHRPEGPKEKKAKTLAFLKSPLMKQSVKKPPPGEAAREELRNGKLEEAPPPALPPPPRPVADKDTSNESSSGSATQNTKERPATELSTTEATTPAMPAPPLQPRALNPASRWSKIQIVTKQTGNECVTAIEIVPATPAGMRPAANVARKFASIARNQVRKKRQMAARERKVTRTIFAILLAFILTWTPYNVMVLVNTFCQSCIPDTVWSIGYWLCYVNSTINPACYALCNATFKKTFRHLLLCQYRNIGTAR
Assay: mAChR M4 cell-based functional assay (calcium mobilization, Fluo-4, FDSS)
Conditions: for Emax (%)*: % ACh maximum at 30 μM; for pEC50: positive allosteric modulator activity, EC20 acetylcholine response; for pEC50 / EC50: CHO-K1 cells; for EC50: positive allosteric modulator activity: concentration-dependent increase in the EC20 acetylcholine response, >10 μM estimated for low potency (no plateau)
Summary of the method: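 Compound responses (11-point, 1:3 series) were followed as calcium fluorescence ratio on FDSS in Gqi5-coupled M4 CHO-K1 cells (human or rat) loaded with Fluo-4. Acetylcholine followed at EC20 (144 s) then EC80 (230 s). EC50/Emax from four-parameter logistic fits of direct, EC20-potentiating or EC80-inhibiting effects.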

Row | Structure (SMILES) | Emax (%)* | pEC50 | EC50
1 | Cc1cc(C)c2c(n1)sc1c(NC3CCOC3)nn(C)c12 (stereo not shown) [Compound 103, 1,6,8-trimethyl-N-(tetrahydrofuran-3-yl)-1H-pyrazolo[3′,4′:4,5]thieno[2,3-b]pyridin-3-amine] | 67% | 6.62 | 240 nM
2 | Cc1cc(C)c2c(n1)sc1c(NCC(C)(C)C)nn(C)c12 [Compound 104, 1,6,8-trimethyl-N-neopentyl-1H-pyrazolo[3′,4′:4,5]thieno[2,3-b]pyridin-3-amine] | 61% | 6.00 | 1000 nM
3 | Cc1cc(C)c2c(n1)sc1c(NC3CCN(C)C3)nn(C)c12 (stereo not shown) [Compound 105, ,6,8-trimethyl-N-(1-methylpyrrolidin-3-yl)-1H-pyrazolo[3′,4′:4,5]thieno[2,3-b]pyridin-3-amine] | 35% | <5.00 | > 10000 nM
4 | Cc1cc(C)c2c(n1)sc1c(NC3CN(C(=O)OC(C)(C)C)C3)nn(C)c12 [Compound 106, tert-butyl 3-((1,6,8-trimethyl-1H-pyrazolo[3′,4′:4,5]thieno[2,3-b]pyridin-3-yl)amino)azetidine-1-carboxylate] | 73% | 7.57 | 27 nM
5 | Cc1cc(C)c2c(n1)sc1c(NC3CCCC3)nn(CCO)c12 [Compound 107, 2-(3-(cyclopentylamino)-6,8-dimethyl-1H-pyrazolo[3′,4′:4,5]thieno[2,3-b]pyridin-1-yl)ethanol] | 65% | 6.70 | 200 nM
6 | Cc1cc(C)c2c(n1)sc1c(NC3CCOC3)nn(CCO)c12 (stereo not shown) [Compound 108, 2-(6,8-dimethyl-3-((tetrahydrofuran-3-yl)amino)-1H-pyrazolo[3′,4′:4,5]thieno[2,3-b]pyridin-1-yl)ethanol] | 69% | 6.09 | 820 nM
7 | Cc1cc(C)c2c(n1)sc1c(NC3CCSC3)nn(CCO)c12 (stereo not shown) [Compound 109, 2-(6,8-dimethyl-3-((tetrahydrothiophen-3-yl)amino)-1H-pyrazolo[3′,4′:4,5]thieno[2,3-b]pyridin-1-yl)ethanol] | 68% | 6.70 | 200 nM
8 | Cc1cc(C)c2c(n1)sc1c(NCc3scnc3C)nn(CCO)c12 [Compound 110, 2-(6,8-dimethyl-3-(((4-methylthiazol-5-yl)methyl)amino)-1H-pyrazolo[3′,4′:4,5]thieno[2,3-b]pyridin-1-yl)ethanol] | 72% | 7.08 | 84 nM
9 | CCOC(=O)CNc1n[nH]c2c1sc1nc(C)cc(C)c12 [Compound 111, ethyl 2-((6,8-dimethyl-1H-pyrazolo[3′,4′:4,5]thieno[2,3-b]pyridin-3-yl)amino)acetate] | 50% | <5.00 | > 10000 nM
10 | Cc1cc(C)c2c(n1)sc1c(NC(C)C)nn(CCO)c12 [Compound 112, 2-(3-(isopropylamino)-6,8-dimethyl-1H-pyrazolo[3′,4′:4,5]thieno[2,3-b]pyridin-1-yl)ethanol] | 71% | 5.68 | 2100 nM
11 | Cc1cc(C)c2c(n1)sc1c(NC3CCCSC3)nn(CCO)c12 (stereo not shown) [Compound 113, 2-(6,8-dimethyl-3-((tetrahydro-2H-thiopyran-3-yl)amino)-1H-pyrazolo[3′,4′:4,5]thieno[2,3-b]pyridin-1-yl)ethanol] | 62% | 6.37 | 430 nM
12 | Cc1cc(C)c2c(n1)sc1c(NC3CCSCC3)nn(CCO)c12 [Compound 114, 2-(6,8-dimethyl-3-((tetrahydro-2H-thiopyran-4-yl)amino)-1H-pyrazolo[3′,4′:4,5]thieno[2,3-b]pyridin-1-yl)ethanol] | 70% | 6.43 | 370 nM
13 | Cc1cc(C)c2c(n1)sc1c(NC3CCOCC3)nn(CCO)c12 [Compound 115, 2-(6,8-dimethyl-3-((tetrahydro-2H-pyran-4-yl)amino)-1H-pyrazolo[3′,4′:4,5]thieno[2,3-b]pyridin-1-yl)ethanol] | 69% | 5.72 | 1900 nM
14 | Cc1cc(C)c2c(n1)sc1c(NCc3ccc(S(C)(=O)=O)cc3)nn(CCO)c12 [Compound 116, 2-(6,8-dimethyl-3-((4-(methylsulfonyl)benzyl)amino)-1H-pyrazolo[3′,4′:4,5]thieno[2,3-b]pyridin-1-yl)ethanol] | 73% | 7.24 | 57 nM
15 | COC(=O)Cn1nc(NCc2ccc(S(C)(=O)=O)cc2)c2sc3nc(C)cc(C)c3c21 [Compound 117, methyl 2-(6,8-dimethyl-3-((4-(methylsulfonyl)benzyl)amino)-1H-pyrazolo[3′,4′:4,5]thieno[2,3-b]pyridin-1-yl)acetate] | 40% | <5.00 | > 10000 nM
16 | COCCn1nc(NCc2ccc(OC)cc2)c2sc3nc(C)cc(C)c3c21 [Compound 118, N-(4-methoxybenzyl)-1-(2-methoxyethyl)-6,8-dimethyl-1H-pyrazolo[3′,4′:4,5]thieno[2,3-b]pyridin-3-amine] | 60% | <5.00 | > 10000 nM
17 | COCCn1nc(NCc2ccc(S(C)(=O)=O)cc2)c2sc3nc(C)cc(C)c3c21 [Compound 119, 1-(2-methoxyethyl)-6,8-dimethyl-N-(4-(methylsulfonyl)benzyl)-1H-pyrazolo[3′,4′:4,5]thieno[2,3-b]pyridin-3-amine] | 65% | 5.92 | 1200 nM
18 | CCCn1nc(NCc2ccc(S(C)(=O)=O)cc2)c2sc3nc(C)cc(C)c3c21 [Compound 120, 6,8-dimethyl-N-(4-(methylsulfonyl)benzyl)-1-propyl-1H-pyrazolo[3′,4′:4,5]thieno[2,3-b]pyridin-3-amine] | 59% | <5.00 | > 10000 nM
19 | CC(=O)N1CCC(CNc2nn(C)c3c2sc2nc(C)cc(C)c23)CC1 [Compound 121, 1-(4-(((1,6,8-trimethyl-1H-pyrazolo[3′,4′:4,5]thieno[2,3-b]pyridin-3-yl)amino)methyl)piperidin-1-yl)ethanone] | 41% | 6.00 | 990 nM
20 | Cc1cc(C)c2c(n1)sc1c(NCC3CCN(C(=O)OC(C)(C)C)CC3)nn(C)c12 [Compound 122, tert-butyl 4-(((1,6,8-trimethyl-1H-pyrazolo[3′,4′:4,5]thieno[2,3-b]pyridin-3-yl)amino)methyl)piperidine-1-carboxylate] | 27% | <5.00 | > 10000 nM
21 | Cc1cc(C)c2c(n1)sc1c(NCC3CCNCC3)nn(C)c12 [Compound 123, 1,6,8-trimethyl-N-(piperidin-4-ylmethyl)-1H-pyrazolo[3′,4′:4,5]thieno[2,3-b]pyridin-3-amine] | 30% | <5.00 | > 10000 nM
22 | Cc1cc(C)c2c(n1)sc1c(NCCC(C)(C)C)n[nH]c12 [Compound 124, N-(3,3-dimethylbutyl)-6,8-dimethyl-1H-pyrazolo[3′,4′:4,5]thieno[2,3-b]pyridin-3-amine] |  | <5.00 | > 10000 nM
23 | Cc1cc(C)c2c(n1)sc1c(N)nn(C(=O)OC(C)(C)C)c12 [Compound 125, tert-butyl 3-amino-6,8-dimethyl-1H-pyrazolo[3′,4′:4,5]thieno[2,3-b]pyridine-1-carboxylate] |  | <5.00 | > 10000 nM
